{
  "source": "patent US20060235062A1",
  "about": "“Novel heterocyclic analogs of diphenylethylene compounds” (THERACOS, INC., priority 2002, published 2006)",
  "key": {"DBA/1 Lac mice": {"test_system": "DBA/1 Lac mice", "assay": "Collagen-induced arthritis in mice", "type": "in vivo", "settings": "50 mg/kg orally daily for 17 days"}, "3T3-L1 adipocytes": {"test_system": "3T3-L1 adipocytes", "assay": "Glucose uptake in differentiated 3T3-L1 adipocytes", "type": "cell-based", "experimental": "Referring to FIG. 8 glucose uptake in 3T3-L1 differentiated adipocytes was measured after treatment with the test compound. The assay was conducted according to the method of Tafuri, Endocrinology, 137, 4706-4712 (1996). The serum-starved cells were treated with the test compound for 48 hours at different concentrations, then washed and incubated in glucose-free media for 30 minutes at 37° C. Then ^14C-deoxyglucose was added and uptake was monitored for 30 minutes under incubation. After washing, the cells were lysed (0.1% SIDS) and counted.\nBasal glucose uptake was measured in differentiated 3T3-L1 adipocytes following the protocol of Tafuri (6) with modifications. Briefly, 3T3-L1 fibroblasts, obtained from ATCC (Manassas, Va.), were differentiated to adipocytes by treating cells with porcine insulin (1 μg/ml for 4 days), dexamethasone (0.25 μM for first 2 days) and isobutyl methyl xanthine (IBMX, 0.5 mM for first 2 days) (all from Sigma Chemicals, St Louis, Mo.) following the protocol of Frost and Lane (7). Differentiated adipocytes were incubated in Dulbecco's Modified Eagle Medium (DMEM) containing 10% fetal bovine serum (GibcoBRL, Gaithersburg, Md.) with various concentrations of Compound 11 or vehicle (0.1% DMSO) for 48 h in 24-well plates, in triplicate. Cells were washed with phosphate buffered saline (PBS, 150 mM NaCl, 1 mM KH2PO4, 3 mM Na2HPO4; pH 7.4) and incubated in glucose-free DMEM for 2 h at 37° C. The cells were washed 3 times with Krebs Ringer Phosphate Buffer (KRP). Glucose uptake was initiated by addition of 0.25 μCi 2-^14C(U)-deoxy-D-glucose (300 μCi/mmol, American Radiolabeled Chemicals Inc., St Louis, Mo.) per well and the cells incubated for 10 min at room temperature in the presence of 0.1 mmol cold 2-deoxy-D-glucose. Finally, the cells were washed three times with ice-cold PBS containing 10 mM cold glucose, lysed with 0.5% SDS, and counted in a scintillation counter (Beckman LS6500)."}, "PPAR-gamma": {"biological_target": "T1, PPAR-gamma (Homo sapiens, UniProt P37231)", "T1 sequence (P37231 1-505)": "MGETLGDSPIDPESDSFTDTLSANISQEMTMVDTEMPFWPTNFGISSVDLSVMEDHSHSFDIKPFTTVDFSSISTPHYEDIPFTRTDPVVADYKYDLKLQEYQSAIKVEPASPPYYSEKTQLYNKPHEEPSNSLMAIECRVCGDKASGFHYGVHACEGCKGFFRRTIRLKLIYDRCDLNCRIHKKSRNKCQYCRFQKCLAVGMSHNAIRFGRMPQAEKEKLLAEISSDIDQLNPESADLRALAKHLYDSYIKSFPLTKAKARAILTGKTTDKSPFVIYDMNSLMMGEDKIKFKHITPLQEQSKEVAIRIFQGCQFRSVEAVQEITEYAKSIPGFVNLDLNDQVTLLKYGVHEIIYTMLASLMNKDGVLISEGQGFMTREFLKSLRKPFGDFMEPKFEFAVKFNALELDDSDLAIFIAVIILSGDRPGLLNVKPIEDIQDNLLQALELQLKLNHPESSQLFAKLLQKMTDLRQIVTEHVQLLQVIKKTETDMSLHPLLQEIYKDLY", "assay": "Preliminary PPAR-gamma competition binding assays", "settings": "data not shown"}, "HepG2 cells": {"test_system": "HepG2 cells", "assay": "Glycogen synthesis in HepG2 cells", "type": "cell-based", "settings": "HepG2, absence of insulin"}},
  "data": [
    {"smiles": "COC(=O)C(=Cc1cc(OC)cc(OC)c1)c1ccc(Oc2ccc(CC3SC(=O)NC3=O)cc2)cc1", "note": "(stereo not shown) [Compound 11, 3-(3,5-Dimethoxyphenyl)-2-{4-[4-(2,4-dioxothiazolidin-5-ylmethyl)-phenoxy]-phenyl}-acrylic acid methyl ester]", "values": [
      {"measurement": "body weight vs vehicle group", "setting": "DBA/1 Lac mice; FIG. 13A", "value": "no change"},
      {"measurement": "clinical scores vs vehicle treated group", "setting": "DBA/1 Lac mice; FIG. 13B", "value": "significantly lower"},
      {"measurement": "joints affected vs vehicle treated group", "setting": "DBA/1 Lac mice; FIG. 13C", "value": "significantly lower"},
      {"measurement": "paw thickness vs vehicle treated group", "setting": "DBA/1 Lac mice; FIG. 13D", "value": "significantly lower"},
      {"measurement": "glucose uptake activity in words", "setting": "3T3-L1 adipocytes; 0.1 μM", "value": "retained activity, but less than that of rosiglitazone"},
      {"measurement": "glucose uptake activity in words", "setting": "3T3-L1 adipocytes; 1 μM", "value": "comparable to rosiglitazone"},
      {"measurement": "effect on insulin-stimulated glucose uptake", "setting": "3T3-L1 adipocytes; 5 μM with increasing insulin, FIG. 20B", "value": "additive, not synergistic"},
      {"measurement": "maximum glucose uptake over basal levels", "setting": "3T3-L1 adipocytes; 0.01-10 μM, 48 h, mean±SE, FIG. 20A", "value": "1.33±0.02", "unit": "fold"},
      {"measurement": "% Glucose uptake 0.1 μm", "setting": "3T3-L1 adipocytes; 0.1 μm, average of quadruplicate ± SD", "value": "161.6 ± 11.4 % basal of the non treated cells"},
      {"measurement": "% Glucose uptake 1.0 μm", "setting": "3T3-L1 adipocytes; 1.0 μm, average of quadruplicate ± SD", "value": "218.1 ± 10.0 % basal of the non treated cells"},
      {"measurement": "affinity (Ki) of PPAR-gamma, less than for rosiglitazone", "setting": "PPAR-gamma", "value": 6.5, "unit": "fold"},
      {"measurement": "14C-glucose incorporated into glycogen, dose response", "setting": "HepG2 cells; FIG. 25A", "value": "dose-dependent increase"},
      {"measurement": "maximal increase in glycogen synthesis over baseline", "setting": "HepG2 cells; at 48 to 72 h, FIG. 25B", "value": 3.1, "unit": "fold"}
    ]}
  ]
}
